The IC50 is the concentration that gives 50% inhibition. The IC90 is the concentration needed for an effect of 90%.

The test system of one series is wild type B.1 SARS-CoV-2. The series is classed as cell-based.
A short description of a further series: in vitro. Particulars: monkey.
The mark [1] stands for this setting: DAA, concentration causing 10% cytotoxicity.

Like-named read-outs stand apart in the source and are kept apart here.

As to tixagevimab, the “IC90 vs. B.1 Mean ± SD” value in the series with wild type B.1 SARS-CoV-2 was 0.305 ± 0.071 µg/mL. For the same compound, in the series with VERO E6 cells (mAb), the “CC10 Mean ± SD” value was >0.36 µg/mL and the “CC50 Mean ± SD” value is >0.36 µg/mL.

For the compound `O=c1nc(NO)ccn1[C@@H]1O[C@H](CO)[C@@H](O)[C@H]1O` [EIDD-1931, reference compound], the IC50 in the series on wild type B.1 SARS-CoV-2 (read-out: IC50 vs. B.1 Mean ± SD) turned out to be 2.4 ± 0.4 µM. Further, the concentration for an effect of 90% (IC90) in the series with wild type B.1 SARS-CoV-2 (read-out: IC90 vs. B.1 Mean ± SD) was 2.5 ± 0.1 µM. In the series with VERO E6 cells (setting [1]), the “CC10 Mean ± SD” value amounted to 3.1 ± 0.4 µM. Besides, the CC50 with VERO E6 cells (read-out: CC50 Mean ± SD, DAA) was 43.3 ± 6 µM.

With cilgavimab, the “IC90 vs. B.1 Mean ± SD” value with wild type B.1 SARS-CoV-2 was found to be 1.385 ± 0.862 µg/mL. Moreover, in the series on VERO E6 cells (mAb), the “CC10 Mean ± SD” value was >0.36 µg/mL and the “CC50 Mean ± SD” value is >0.36 µg/mL.

Regarding sotrovimab, the “IC90 vs. B.1 Mean ± SD” value in the series on wild type B.1 SARS-CoV-2 came to 1.718 ± 0.594 µg/mL. Besides, in the series with VERO E6 cells (mAb), the “CC10 Mean ± SD” value was >2.4 µg/mL and the “CC50 Mean ± SD” value was >2.4 µg/mL.

As for `CC(C)(C)[C@H](NC(=O)C(F)(F)F)C(=O)N1C[C@H]2[C@@H]([C@H]1C(=O)N[C@H](C#N)C[C@@H]1CCNC1=O)C2(C)C` [NRM, nirmatrelvir, reference compound], the CC50 in the series “in vitro” stood at 40.7 ± 4 µM. Further, the “CC10 Mean ± SD” value in the series on VERO E6 cells (setting [1]) came out at 2.9 ± 0.2 µM.

Regarding bebtelovimab, the “IC90 vs. B.1 Mean ± SD” value in the series with wild type B.1 SARS-CoV-2 turned out to be 0.089 ± 0.009 µg/mL. In the series with VERO E6 cells (mAb), the “CC10 Mean ± SD” value is >0.06 µg/mL and the “CC50 Mean ± SD” value is >0.06 µg/mL.

The compound `CCC(CC)COC(=O)[C@H](C)N[P@](=O)(OC[C@H]1O[C@@](C#N)(c2ccc3c(N)ncnn23)[C@H](O)[C@@H]1O)Oc1ccccc1` [RDV, remdesivir, reference compound] came in with a CC50 in “in vitro” of 17.2 ± 0.2 µM. Besides, in the series with VERO E6 cells (setting [1]), the “CC10 Mean ± SD” value is 4.2 ± 0.6 µM.

The values above are taken from PMC10892871 (Viruses, 2024).
